# Laboratory results reported in article PMC10714400, “Antimicrobial Peptide–Peptoid Hybrids with and without Membrane Disruption” (ACS Infectious Diseases, 2023).
# Where a SMILES comes first, the peptide text is derived from it. [ ]: non-standard residue; d: D form. Nleu = CC(C)CNCC(=O)O; Nlys = NCCCCNCC(=O)O
# What was measured:
# P. aeruginosa PA14 = conditions: Table S3; […] MH at pH 8.5, 16-20 hours at 37 °C
# Method in brief: (§1)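 MICs were determined by broth microdilution in MH medium, with approximately 5 × 10^5 CFU added per well and plates held at 37 °C for about 18 h without shaking.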
# S. aureus Newman = conditions: Table S3; […] MH at pH 8.5
# Method in brief: as §1
# B. cenocepacia = conditions: 4 h, pH 8.5
# Method in brief: as §1
# S. maltophilia = conditions: Table S3; […] MH at pH 8.5
# Method in brief: as §1
# S. epidermis = conditions: Table S3; […] MH at pH 8.5
# Method in brief: as §1
# [1] = test system: human red blood cells (hRBC); assay: Minimum hemolytic concentration (MHC); format: cell-based
# From the text: We also measured minimal hemolysis concentrations (MHC) on human red blood cells by serial 2-fold dilution as an indication of toxicity against eukaryotic cells (Table 1).
# PA14 4.18 (pmrB) = test system: PA14 4.18 (pmrB)
# Method in brief: as §1
# K. pneumoniae OXA-48 = conditions: […] MH at pH 8.5
# Method in brief: as §1
# [2] = test system: ZEM9A (clinical MDR P. aeruginosa isolate); conditions: […] MH at pH 8.5
# Method in brief: as §1
# E. coli W3110 = test system: E. coli W3110
# Method in brief: as §1
# S. aureus COL (MRSA) = test system: S. aureus COL (MRSA)
# Method in brief: as §1
# [3] = test system: ZEM-1A (clinical MDR P. aeruginosa isolate)
# Method in brief: as §1
# E. cloacae = conditions: Table S3; […] MH at pH 8.5
# Method in brief: as §1
# PA14 2P4 (pmrB) = test system: PA14 2P4 (pmrB)
# Method in brief: as §1
# PA14 4.13 (phoQ) = test system: PA14 4.13 (phoQ)
# Method in brief: as §1
# HEK293 cells = assay: Cell viability assay by Alamar blue
# Protocol: The data are represented as the mean value ± SD, n = 3. […] (c) Vesicle leakage assay for a selection of compounds. Lipid vesicles made of EYPG or EYPC were suspended in a buffer (10 mM TRIS, 107 mM NaCl, pH 7.4). After 45 s, the indicated compound was added to reach the desired concentration. After 240 s, 30 μL of 1.2% TritonX-100 was added for full fluorescein release. […] See Supporting Information for the full curves, all of the data, and procedures.
# HEK293 cells were cultured and maintained in DMEM high glucose (Dulbecco’s modified Eagle medium, Sigma Aldrich) medium supplemented with 10% FBS (Sigma Aldrich) and 1% penicillin/streptomycin. A549 cells were cultured and maintained in RPMI-1640 medium (Sigma Aldrich), supplemented with 10% FBS (Sigma Aldrich) and 1% penicillin/streptomycin. The cells were handled and subcultured according to the manufacturer instructions. Cells were incubated in a humidified incubator at 37 °C in the presence of 5% CO2.
# Assays on HEK293, A549 cells were performed as described earlier.[74] […]
# [4] = diluted MH ([…] MH) at pH 8.5 (Table 2 footnote b)
smiles,measurement,setting,value
"CC(C)C[C@H](NC(=O)CN(CC(C)C)C(=O)[C@H](CC(C)C)NC(=O)CN(CCCCN)C(=O)[C@H](CC(C)C)NC(=O)CN(CC(C)C)C(=O)[C@H](CCCCN)NC(=O)CN(CC(C)C)C(=O)[C@H](CC(C)C)NC(=O)CN(CCCCN)C(=O)[C@@H](N)CCCCN)C(N)=O [EB9, KkLlKlLkLlL] (H-K[Nlys]L[Nleu]K[Nleu]L[Nlys]L[Nleu]L-NH2)",MIC P. aeruginosa PA14,P. aeruginosa PA14,2 µg/mL
same,MIC S. aureus Newman,S. aureus Newman,4 µg/mL
same,MIC B. cenocepacia,B. cenocepacia,>32 µg/mL
same,MIC S. maltophilia,S. maltophilia,8 µg/mL
same,MIC S. epidermis,S. epidermis,2 µg/mL
same,Hemolysis,[1],none of them showed any measurable hemolysis
same,MHC,[1],>2000 µg/mL
same,"MIC P. aeruginosa PA14 4.18, […] MH at pH 8.5","PA14 4.18 (pmrB); CSV, […] MH at pH 8.5",6 ug/mL
same,MIC P. aeruginosa PA14 4.18,"PA14 4.18 (pmrB); Table S3, […] MH at pH 8.5",4 to 8 µg/mL
same,MIC PA14 4.18 (pmrB),PA14 4.18 (pmrB); [4],4 to 8 µg/mL
same,"MIC K. pneumoniae OXA-48, […] MH at pH 8.5",K. pneumoniae OXA-48; CSV,32 ug/mL
same,MIC K. pneumoniae OXA-48,K. pneumoniae OXA-48; Table S3,32 µg/mL
same,"MIC P. aeruginosa ZEM9A, […] MH at pH 8.5",[2]; CSV,2 ug/mL
same,MIC P. aeruginosa ZEM9A,[2]; Table S3,2 µg/mL
same,"MIC E. coli W3110, […] MH at pH 7.4","E. coli W3110; CSV, […] MH at pH 7.4",2 ug/mL
same,"MIC E. coli W3110, […] MH at pH 8.5","E. coli W3110; CSV, […] MH at pH 8.5",2 ug/mL
same,"MIC E. coli W3110, full MH at pH 7.4","E. coli W3110; CSV, full MH at pH 7.4",16 ug/mL
same,Antibacterial activity as a function of NaCl concentration,"E. coli W3110; E. coli W3110, […] MH at pH 8.5, up to 300 mM NaCl",strongly reduced
same,MIC E. coli W3110 […] 7.4,"E. coli W3110; Table S2, […] MH, pH 7.4",2 µg/mL
same,MIC E. coli W3110 […] 8.5,"E. coli W3110; Table S2, […] MH, pH 8.5",2 µg/mL
same,MIC E. coli W3110 Full MH 7.4,"E. coli W3110; Table S2, full MH, pH 7.4",16 µg/mL
same,MIC E. coli W3110 Full MH 8.5,"E. coli W3110; Table S2, full MH, pH 8.5",> 32 µg/mL
same,"MIC S. aureus COL (MRSA), full MH at pH 7.4","S. aureus COL (MRSA); COL, 4 h, pH 7.4",>32 ug/mL
same,"MIC S. aureus COL (MRSA), full MH at pH 8.5","S. aureus COL (MRSA); COL, 4 h, pH 8.5",>32 ug/mL
same,MIC S. aureus COL (MRSA) […] 7.4,"S. aureus COL (MRSA); Table S2, […] MH, pH 7.4",32 µg/mL
same,MIC S. aureus COL (MRSA) Full MH 7.4,"S. aureus COL (MRSA); Table S2, full MH, pH 7.4",> 32 µg/mL
same,MIC S. aureus COL (MRSA) Full MH 8.5,"S. aureus COL (MRSA); Table S2, full MH, pH 8.5",> 32 µg/mL
same,"MIC P. aeruginosa ZEM-1A, […] MH at pH 8.5","[3]; CSV, […] MH at pH 8.5",3 ug/mL
same,MIC P. aeruginosa ZEM-1A,"[3]; Table S3, […] MH at pH 8.5",2 to 4 µg/mL
same,MIC ZEM-1A,[3]; [4],2 to 4 µg/mL
same,MIC E. cloacae,E. cloacae,16 µg/mL
same,"MIC P. aeruginosa PA14 2P4, […] MH at pH 8.5","PA14 2P4 (pmrB); CSV, […] MH at pH 8.5",4 ug/mL
same,MIC PA14 2P4 (pmrB),PA14 2P4 (pmrB); [4],4 µg/mL
same,"MIC P. aeruginosa PA14 4.13, […] MH at pH 8.5","PA14 4.13 (phoQ); CSV, […] MH at pH 8.5",2 ug/mL
same,MIC PA14 4.13 (phoQ),PA14 4.13 (phoQ); [4],2 µg/mL
same,"Toxicity against HEK293 cells, no effect detected up to",HEK293 cells,> 200 µM
same,IC50,"HEK293 cells; read-out: Toxicity on HEK293 cells, CSV",> 200 µM
